# In US10933052B2, “Compositions and methods for the treatment of eye disorders” (Cellix Bio Private Limited, priority 2017, dated 2021):
# Assay: Ocular pharmacokinetic study of CLX-156 formulation, topical administration in each eye
# Type: in vivo, male New Zealand white rabbits
# Conditions: rabbit, topical 50 μL in each eye
# Method: A pharmacokinetics study was conducted on male New Zealand white rabbits to evaluate the ocular pharmacokinetics of CLX-156 (Pilocarpine-(R)-Lipoate) formulation. Animals were topically administered with 50 μL of CLX-156 in each eye, and the aqueous humour and blood samples were collected followed by sacrifice of the animals for collection of lens, cornea and iris region at a pre-determined time.
# The aqueous humour and tissue concentration of Pilocarpine and (R)-Lipoic acid were measured at 0.5 h, 1 h, 2 h, 4 h and 8 h in 3 animals/time point/group (as provided in Table 2 and Table 3 hereinbelow). Further, (R)-Lipoic acid concentration was measured in the lens region, and Pilocarpine concentration was measured in iris region of each of the treated animals (as provided in Table 2 and Table 3). All the samples were analyzed using LCMS-MS by a fit for purpose method.
# [1] = analyte (R)-Lipoic acid, aqueous humour
# [2] = analyte (R)-Lipoic acid, lens region
# [3] = analyte Pilocarpine, aqueous humour
# [4] = analyte Pilocarpine, iris region
substance,measurement,setting,value
"5-(((3R,4S)-4-ethyl-5-oxotetrahydro furan-3-yl)methyl)-1-methyl-1H-imidazol-1-ium (R)-5-(1,2-dithiolan-3-yl)pentanoate [CLX-156]","AUClast, (R)-Lipoic acid in aqueous humour",[1],17271 ng·h/mL
same,"Cmax, concentration of (R)-Lipoic acid in aqueous humour",[1],21067 ng/mL
same,"Tmax, (R)-Lipoic acid in aqueous humour",[1],30 min
same,"AUClast, (R)-Lipoic acid in lens region",[2],0.364 µg·h/g
same,"Tmax, (R)-Lipoic acid in lens region",[2],30 min
same,"AUClast, Pilocarpine in aqueous humour",[3],6359 ng·h/mL
same,"Cmax, concentration of Pilocarpine in aqueous humour",[3],6480 ng/mL
same,"Tmax, Pilocarpine in aqueous humour",[3],30 min
same,time up to which pilocarpine was detectable in aqueous humour,[3],up to 4 h
same,"AUClast, Pilocarpine in iris region",[4],1.491 µg·h/g
same,"Tmax, Pilocarpine in iris region",[4],30 min
same,time up to which pilocarpine was detectable in iris region,[4],up to 2 h
